# Source: US7482365B2, “Piperidylcarboxamide derivatives and their use in the treatment of tachykinin-mediated diseases” (Glaxo Group Limited, priority 2002, dated 2009)
row,melting point [°C],Compound
1,130 to 131,Cc1cc(F)ccc1[C@H]1C[C@H](NCC(N)=O)CCN1C(=O)N(C)Cc1cc(C(F)(F)F)cc(C(F)(F)F)c1.Cl
2,100 to 101,Cc1cc(F)ccc1[C@H]1C[C@@H](NCC(N)=O)CCN1C(=O)N(C)Cc1cc(C(F)(F)F)cc(C(F)(F)F)c1.Cl
3,180 to 183,Cc1cc(F)ccc1[C@H]1C[C@H](N(C)C)CCN1C(=O)N(C)Cc1cc(C(F)(F)F)cc(C(F)(F)F)c1.Cl
4,147 to 150,Cc1cc(F)ccc1[C@H]1C[C@@H](N(C)C)CCN1C(=O)N(C)Cc1cc(C(F)(F)F)cc(C(F)(F)F)c1.Cl
5,145 to 146,Cc1cc(F)ccc1[C@H]1C[C@H](NCCF)CCN1C(=O)N(C)Cc1cc(C(F)(F)F)cc(C(F)(F)F)c1.Cl
